Assay results as given in PubChem BioAssay AID248 (DTP/NCI, 2004).
Several values for one entry are separate records, joined by “and”; a condition that tells them apart may be missing. Identical values can stand only once. Inconclusive results and toxic doses are left out.

Test system: L1210 leukemia ip in BDF1 mice, survival T/C
Assay: NCI In Vivo Anticancer Drug Screen. Data for tumor model L1210 Leukemia (intraperitoneal) in B6D2F1 (BDF1) mice
Settings: endpoint: mean survival time, higher = longer survival
Summary of the method: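 Tumor was transplanted into mice, which were then dosed with test compound or vehicle alone. Survival was recorded for each group, and the treated figure was expressed relative to the control figure.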

[1] = dose: 100.0 mg/kg/injection, schedule: Q04DX003 (ip), vehicle: saline with Tween-80
[2] = dose: 200.0 mg/kg/injection, schedule: Q04DX003 (ip), vehicle: saline with Tween-80
[3] = dose: 400.0 mg/kg/injection, schedule: Q04DX003 (ip), vehicle: saline with Tween-80
[4] = dose: 100.0 mg/kg/injection, schedule: Q01DX009 (ip), vehicle: saline with Tween-80
[5] = dose: 200.0 mg/kg/injection, schedule: Q01DX009 (ip), vehicle: saline with Tween-80
[6] = dose: 400.0 mg/kg/injection, schedule: Q01DX009 (ip), vehicle: saline with Tween-80
[7] = dose: 100.0 mg/kg/injection, schedule: Q01DX001 (ip), vehicle: saline
[8] = dose: 100.0 mg/kg/injection, schedule: Q01DX009 (ip), vehicle: saline
[9] = dose: 100.0 mg/kg/injection, schedule: Q04DX002 (ip), vehicle: saline
[10] = dose: 200.0 mg/kg/injection, schedule: Q01DX001 (ip), vehicle: saline
[11] = dose: 200.0 mg/kg/injection, schedule: Q01DX009 (ip), vehicle: saline
[12] = dose: 200.0 mg/kg/injection, schedule: Q04DX002 (ip), vehicle: saline
[13] = dose: 400.0 mg/kg/injection, schedule: Q01DX001 (ip), vehicle: saline
[14] = dose: 400.0 mg/kg/injection, schedule: Q04DX002 (ip), vehicle: saline
[15] = dose: 100.0 mg/kg/injection, schedule: Q01DX009 (ip), vehicle: Klucel (hydroxypropylcellulose) (HPC)
[16] = dose: 200.0 mg/kg/injection, schedule: Q01DX009 (ip), vehicle: Klucel (hydroxypropylcellulose) (HPC)
[17] = dose: 400.0 mg/kg/injection, schedule: Q01DX009 (ip), vehicle: Klucel (hydroxypropylcellulose) (HPC)
[18] = dose: 75.0 mg/kg/injection, schedule: Q01DX001 (ip), vehicle: saline
[19] = dose: 100.0 mg/kg/injection, schedule: Q04DX002 (ip), vehicle: saline with Tween-80
[20] = dose: 200.0 mg/kg/injection, schedule: Q04DX002 (ip), vehicle: saline with Tween-80
[21] = dose: 400.0 mg/kg/injection, schedule: Q04DX002 (ip), vehicle: saline with Tween-80
[22] = dose: 150.0 mg/kg/injection, schedule: Q01DX001 (ip), vehicle: saline
[23] = dose: 300.0 mg/kg/injection, schedule: Q01DX001 (ip), vehicle: saline

SMILES: CC(=O)OCC1OC(n2cnc3c(=S)nc[nH]c32)C(OC(C)=O)C1OC(C)=O (stereo unspecified)
- T/C (dose: 6.5 mg/kg/injection, schedule: Q01DX Z (ip), vehicle: carboxymethylcellulose (CMC)): 122 % of control
- T/C (dose: 13.0 mg/kg/injection, schedule: Q01DX Z (ip), vehicle: carboxymethylcellulose (CMC)): 113 % of control
- T/C (dose: 40.0 mg/kg/injection, schedule: Q01DX Z (ip), vehicle: carboxymethylcellulose (CMC)): 151 % of control
- T/C (dose: 180.0 mg/kg/injection, schedule: Q01DX Z (ip), vehicle: carboxymethylcellulose (CMC)): 107 % of control

SMILES: Cc1ccc(C(=O)CCC(=O)O)c(C)c1
- T/C [1]: 100 % of control
- T/C [2]: 98 % of control
- T/C [3]: 98 % of control

SMILES: O=C(O)C1CCC=CC1c1ccccc1 (stereo unspecified)
- T/C (dose: 100.0 mg/kg/injection, schedule: Q01DX005 (ip), vehicle: saline with Tween-80): 101 % of control
- T/C [4]: 96 % of control
- T/C (dose: 200.0 mg/kg/injection, schedule: Q01DX005 (ip), vehicle: saline with Tween-80): 101 % of control
- T/C [5]: 110 % of control
- T/C (dose: 400.0 mg/kg/injection, schedule: Q01DX005 (ip), vehicle: saline with Tween-80): 116 % of control
- T/C [6]: 110 % of control

SMILES: O=C(NC1C=CCCC1)NC1C=CCCC1 (stereo unspecified)
- T/C (dose: 50.0 mg/kg/injection, schedule: Q01DX001 (ip), vehicle: other): 88 % of control
- T/C (dose: 100.0 mg/kg/injection, schedule: Q01DX001 (ip), vehicle: other): 94 % of control
- T/C (dose: 200.0 mg/kg/injection, schedule: Q01DX001 (ip), vehicle: other): 97 % of control
- T/C (dose: 400.0 mg/kg/injection, schedule: Q01DX001 (ip), vehicle: other): 94 % of control

SMILES: CCC(CO)NC(=O)/C=C/c1cccc(Br)c1 (stereo unspecified)
- T/C (dose: 100.0 mg/kg/injection, schedule: Q04DX003 (ip), vehicle: other): 102 % of control
- T/C (dose: 200.0 mg/kg/injection, schedule: Q04DX003 (ip), vehicle: other): 103 % of control
- T/C (dose: 400.0 mg/kg/injection, schedule: Q04DX003 (ip), vehicle: other): 96 % of control

SMILES: COc1ccccc1NC(=O)Oc1ccc(Br)cc1Br
- T/C [7]: 95 % of control
- T/C [8]: 102 % of control and 106 % of control
- T/C [9]: 105 % of control and 109 % of control
- T/C (dose: 100.0 mg/kg/injection, schedule: Q04DX003 (ip), vehicle: saline): 93 % of control
- T/C [10]: 101 % of control
- T/C [11]: 103 % of control and 110 % of control
- T/C [12]: 105 % of control and 109 % of control
- T/C (dose: 200.0 mg/kg/injection, schedule: Q04DX003 (ip), vehicle: saline): 95 % of control
- T/C [13]: 123 % of control
- T/C (dose: 400.0 mg/kg/injection, schedule: Q01DX009 (ip), vehicle: saline): 103 % of control and 109 % of control
- T/C [14]: 107 % of control and 88 % of control
- T/C (dose: 400.0 mg/kg/injection, schedule: Q04DX003 (ip), vehicle: saline): 101 % of control

SMILES: O=[N+]([O-])c1ccc(CC(O)c2ccccc2)cc1 (stereo unspecified)
- T/C (dose: 50.0 mg/kg/injection, schedule: Q04DX003 (ip), vehicle: Klucel (hydroxypropylcellulose) (HPC)): 105 % of control
- T/C [15]: 111 % of control
- T/C (dose: 100.0 mg/kg/injection, schedule: Q04DX003 (ip), vehicle: Klucel (hydroxypropylcellulose) (HPC)): 102 % of control
- T/C [16]: 107 % of control
- T/C (dose: 200.0 mg/kg/injection, schedule: Q04DX003 (ip), vehicle: Klucel (hydroxypropylcellulose) (HPC)): 105 % of control
- T/C [17]: 103 % of control
- T/C (dose: 400.0 mg/kg/injection, schedule: Q04DX003 (ip), vehicle: Klucel (hydroxypropylcellulose) (HPC)): 105 % of control

SMILES: CC(=O)NCCCOc1ccc(N)cc1
- T/C [7]: 96 % of control
- T/C [10]: 102 % of control
- T/C [13]: 105 % of control

SMILES: O=C(c1ccccc1)c1ccc[n+](Cc2c(Cl)cccc2Cl)c1
- T/C [18]: 101 % of control

SMILES: OCC1CCCC1
- T/C (dose: 50.0 mg/kg/injection, schedule: Q01DX001 (ip), vehicle: carboxymethylcellulose (CMC)): 92 % of control
- T/C (dose: 100.0 mg/kg/injection, schedule: Q01DX001 (ip), vehicle: carboxymethylcellulose (CMC)): 94 % of control
- T/C (dose: 200.0 mg/kg/injection, schedule: Q01DX001 (ip), vehicle: carboxymethylcellulose (CMC)): 92 % of control
- T/C (dose: 400.0 mg/kg/injection, schedule: Q01DX001 (ip), vehicle: carboxymethylcellulose (CMC)): 94 % of control

SMILES: Cc1ccc(SP(=S)(Sc2ccc(C)cc2)Sc2ccc(C)cc2)cc1
- T/C [15]: 97 % of control
- T/C [16]: 97 % of control
- T/C [17]: 94 % of control

SMILES: OCC(O)CSc1c(Cl)c(Cl)c(Cl)c(Cl)c1Cl (stereo unspecified)
- T/C (dose: 100.0 mg/kg/injection, schedule: Q01DX001 (ip), vehicle: saline with Tween-80): 98 % of control and 88 % of control
- T/C [19]: 95 % of control and 101 % of control
- T/C [1]: 92 % of control
- T/C (dose: 200.0 mg/kg/injection, schedule: Q01DX001 (ip), vehicle: saline with Tween-80): 93 % of control and 95 % of control
- T/C [20]: 95 % of control and 96 % of control
- T/C [2]: 99 % of control
- T/C (dose: 400.0 mg/kg/injection, schedule: Q01DX001 (ip), vehicle: saline with Tween-80): 95 % of control and 86 % of control
- T/C [21]: 97 % of control and 108 % of control
- T/C [3]: 94 % of control

SMILES: Cc1ccc(SCC#CCOc2ccc(Cl)cc2)cc1
- T/C [18]: 93 % of control
- T/C (dose: 75.0 mg/kg/injection, schedule: Q01DX009 (ip), vehicle: saline): 99 % of control
- T/C [22]: 95 % of control
- T/C (dose: 150.0 mg/kg/injection, schedule: Q01DX009 (ip), vehicle: saline): 99 % of control
- T/C [23]: 93 % of control
- T/C (dose: 300.0 mg/kg/injection, schedule: Q01DX009 (ip), vehicle: saline): 96 % of control

SMILES: CC(=O)N1N=C(c2ccccc2)CC1C1CC(c2ccccc2)=NN1C(C)=O (stereo unspecified)
- T/C [7]: 102 % of control
- T/C [10]: 100 % of control
- T/C [13]: 102 % of control

SMILES: NC(N)=N/N=C/C(=N\N=C(N)N)C(O)CO (stereo unspecified)
- T/C [18]: 109 % of control and 100 % of control
- T/C [22]: 105 % of control and 106 % of control
- T/C [23]: 101 % of control and 105 % of control

SMILES: Cc1cccc([N+](=O)[O-])c1O
- T/C (dose: 100.0 mg/kg/injection, schedule: Q04DX002 (ip), vehicle: Klucel (hydroxypropylcellulose) (HPC)): 99 % of control
- T/C (dose: 200.0 mg/kg/injection, schedule: Q04DX002 (ip), vehicle: Klucel (hydroxypropylcellulose) (HPC)): 95 % of control
- T/C (dose: 400.0 mg/kg/injection, schedule: Q04DX002 (ip), vehicle: Klucel (hydroxypropylcellulose) (HPC)): 87 % of control

SMILES: CC(Cl)[N+](=O)[O-] (stereo unspecified)
- T/C [19]: 94 % of control
- T/C [20]: 94 % of control
- T/C [21]: 98 % of control

SMILES: NCCc1ccc(F)cc1
- T/C [8]: 109 % of control
- T/C [11]: 97 % of control

SMILES: CCN(CC)C(=O)COc1ccc(Cl)cc1
- T/C [9]: 114 % of control
- T/C [12]: 107 % of control
- T/C [14]: 118 % of control

SMILES: Cc1cc(Cl)ccc1OCCCC(=O)O
- T/C (dose: 50.0 mg/kg/injection, schedule: Q01DX001 (ip), vehicle: saline): 102 % of control
- T/C [7]: 98 % of control
- T/C [10]: 98 % of control
- T/C [13]: 104 % of control

SMILES: CSC(SC)=C(C#N)C#N
- T/C (dose: 25.0 mg/kg/injection, schedule: Q04DX002 (ip), vehicle: saline): 101 % of control

SMILES: Cc1ccc(S(=O)(=O)OCCc2ccccc2)cc1
- T/C [4]: 100 % of control
- T/C [1]: 102 % of control
- T/C [5]: 100 % of control
- T/C [2]: 102 % of control
- T/C [6]: 96 % of control
- T/C [3]: 100 % of control

SMILES: Cl[C](Cl)([Pb]([c]1ccccc1)([c]1ccccc1)[c]1ccccc1)[Pb]([c]1ccccc1)([c]1ccccc1)[c]1ccccc1
- T/C [19]: 98 % of control
- T/C [20]: 94 % of control
- T/C [21]: 90 % of control

SMILES: CN(C)CCC(=O)c1ccc2cc(Br)c3ccccc3c2c1
- T/C (dose: 13.3 mg/kg/injection, schedule: Q01DX Z (ip), vehicle: methylcellulose (MC)): 91 % of control
- T/C (dose: 30.0 mg/kg/injection, schedule: Q01DX Z (ip), vehicle: methylcellulose (MC)): 95 % of control

SMILES: CC(=O)Oc1ccc([N+](=O)[O-])cc1OC(C)=O
- T/C (dose: 75.0 mg/kg/injection, schedule: Q01DX001 (ip), vehicle: water): 92 % of control
- T/C (dose: 150.0 mg/kg/injection, schedule: Q01DX001 (ip), vehicle: water): 92 % of control
- T/C (dose: 300.0 mg/kg/injection, schedule: Q01DX001 (ip), vehicle: water): 95 % of control
